Consider nine compounds from ChEMBL document CHEMBL3593195, “Endophytic Diaporthe sp. LG23 Produces a Potent Antibacterial Tetracyclic Triterpenoid” (2015).

One may read the MIC as the least concentration at which growth counts as inhibited. Read a high MIC as a less susceptible organism.

What all share (format): functional
In one experiment the test system is Staphylococcus aureus. Nature of the experiment: Antibacterial activity against Staphylococcus aureus DSM 799 incubated for 24 hrs by disk diffusion method. (In general: A growth-free zone around the sample is the usual read-out of agar diffusion tests.)
For a further experiment, the system named is Streptococcus pyogenes. Kind of experiment: Antibacterial activity against Streptococcus pyogenes DSM 11728 incubated for 24 hrs by disk diffusion method.
The test system of the next experiment is Escherichia coli. Nature of the experiment: Antibacterial activity against Escherichia coli DSM 682 incubated for 24 hrs by disk diffusion method.
A further experiment deals with Bacillus subtilis. Nature of the experiment: Antibacterial activity against Bacillus subtilis DSM 1088 incubated for 24 hrs by disk diffusion method.
For another experiment, the system named is Pseudomonas aeruginosa. Nature of the experiment: Antibacterial activity against Pseudomonas aeruginosa DSM 22644 incubated for 24 hrs by disk diffusion method.

Converted amounts (≈) assume the structure as drawn.

Turning to `CO[C@]12CC[C@]3(C)[C@@H]([C@H](C)/C=C/[C@H](C)C(C)C)CC[C@H]3C1=CC(=O)O2`, the MIC was over 10 µg/mL against Staphylococcus aureus (DSM 799, 24 h); over 10 µg/mL against Streptococcus pyogenes (DSM 11728, 24 h); over 10 µg/mL in the experiment on Escherichia coli (DSM 682, 24 h); over 10 µg/mL against Bacillus subtilis (DSM 1088, 24 h); over 10 µg/mL in the experiment with Pseudomonas aeruginosa (DSM 22644, 24 h).

Turning to `CC(C)[C@@H](C)/C=C/[C@@H](C)[C@H]1CC[C@H]2C3=C[C@H](O)[C@@]4(O)C[C@@H](O)CC[C@]4(C)C3=CC[C@]12C`, the MIC was over 10 µg/mL against Staphylococcus aureus (DSM 799, 24 h); over 10 µg/mL in the experiment with Streptococcus pyogenes (DSM 11728, 24 h); over 10 µg/mL against Escherichia coli (DSM 682, 24 h); over 10 µg/mL against Bacillus subtilis (DSM 1088, 24 h); over 10 µg/mL in the experiment with Pseudomonas aeruginosa (DSM 22644, 24 h).

`CC(C)[C@@H](C)/C=C/[C@@H](C)[C@H]1CCC2C3=CC(=O)O[C@@]3(O)CC[C@@]21C` (stereo not given in full) [DEMETHYLINCISTEROL A3]: the MIC in the experiment on Staphylococcus aureus (DSM 799, 24 h) was over 10 µg/mL; with Streptococcus pyogenes (DSM 11728, 24 h), over 10 µg/mL; against Escherichia coli (DSM 682, 24 h) it was over 10 µg/mL; against Bacillus subtilis (DSM 1088, 24 h) it was over 10 µg/mL; in the experiment on Pseudomonas aeruginosa (DSM 22644, 24 h), over 10 µg/mL.

For the compound `CC(C)[C@@H](C)/C=C/[C@@H](C)[C@H]1CC[C@H]2C3=CC(=O)[C@@]4(O)C[C@@H](O)CC[C@]4(C)[C@@]3(O)CC[C@]12C`, the MIC in the experiment on Staphylococcus aureus (DSM 799, 24 h) is over 10 µg/mL; in the experiment on Streptococcus pyogenes (DSM 11728, 24 h), over 10 µg/mL; against Escherichia coli (DSM 682, 24 h), over 10 µg/mL; in the experiment on Bacillus subtilis (DSM 1088, 24 h), 5 µg/mL (≈ 11.2 µM); in the experiment on Pseudomonas aeruginosa (DSM 22644, 24 h), over 10 µg/mL.

On to `CC(C)=CC[C@H](O)[C@@H](C)[C@H]1CC[C@@]2(C)c3ccc4c(c3C[C@@H](O)[C@]12C)[C@@H](O)C[C@H](O)C4(C)C`, for which the MIC against Staphylococcus aureus (DSM 799, 24 h) was 5 µg/mL (≈ 10.9 µM); with Streptococcus pyogenes (DSM 11728, 24 h), 0.1 µg/mL (≈ 0.219 µM); in the experiment with Escherichia coli (DSM 682, 24 h), 5 µg/mL (≈ 10.9 µM); against Bacillus subtilis (DSM 1088, 24 h), 2 µg/mL (≈ 4.38 µM); against Pseudomonas aeruginosa (DSM 22644, 24 h) it was 2 µg/mL (≈ 4.38 µM).

For GENTAMICIN, the MIC came to 1 µg/mL with Staphylococcus aureus; 10 µg/mL in the experiment on Streptococcus pyogenes; 1 µg/mL against Escherichia coli; 1 µg/mL in the experiment with Bacillus subtilis; 1 µg/mL in the experiment with Pseudomonas aeruginosa.

`CC(C)[C@@H](C)/C=C/[C@@H](C)[C@H]1CC[C@H]2/C(=C/C(=O)O[C@]3(C)CCC=CC3=O)C(=O)CC[C@]12C`: the MIC against Staphylococcus aureus (DSM 799, 24 h) is 1 µg/mL (≈ 2.27 µM); against Streptococcus pyogenes (DSM 11728, 24 h) it was over 10 µg/mL; in the experiment on Escherichia coli (DSM 682, 24 h), over 10 µg/mL; against Bacillus subtilis (DSM 1088, 24 h) it was 5 µg/mL (≈ 11.3 µM); against Pseudomonas aeruginosa (DSM 22644, 24 h) it was over 10 µg/mL.

As for `CC(C)[C@@H](C)/C=C/[C@@H](C)[C@H]1CC[C@@]2(O)C3=CC(=O)[C@@]4(O)C[C@@H](O)CC[C@]4(C)[C@@]3(O)CC[C@]12C`, the MIC with Staphylococcus aureus (DSM 799, 24 h) was over 10 µg/mL; with Streptococcus pyogenes (DSM 11728, 24 h) it was over 10 µg/mL; in the experiment with Escherichia coli (DSM 682, 24 h) it was over 10 µg/mL; in the experiment with Bacillus subtilis (DSM 1088, 24 h) it was over 10 µg/mL; against Pseudomonas aeruginosa (DSM 22644, 24 h) it was over 10 µg/mL.

As to `CN[C@@H]1[C@H](O[C@H]2[C@H](O[C@H]3[C@H](O)[C@@H](O)[C@H](N=C(N)N)[C@@H](O)[C@@H]3N=C(N)N)O[C@@H](C)[C@]2(O)C=O)O[C@@H](CO)[C@H](O)[C@H]1O` [STREPTOMYCIN], the MIC is 5 µg/mL (≈ 8.6 µM) in the experiment on Staphylococcus aureus (DSM 799, 24 h); over 10 µg/mL with Streptococcus pyogenes (DSM 11728, 24 h); 1 µg/mL (≈ 1.72 µM) against Escherichia coli (DSM 682, 24 h); 5 µg/mL (≈ 8.6 µM) in the experiment on Bacillus subtilis (DSM 1088, 24 h); 10 µg/mL (≈ 17.2 µM) against Pseudomonas aeruginosa (DSM 22644, 24 h).
